According to patent US11124515B2, “Adenosine receptor antagonists and uses thereof” (Teon Therapeutics, Inc., priority 2018, dated 2021):

Assay: Pharmacokinetic study in Sprague Dawley rats, single oral dose, plasma LC/MS/MS
Type: in vivo
Details: suspension in 0.5% methylcellulose in water
Protocol: Pharmacokinetic studies were carried out in Sprague Dawley rats. Exemplary compounds were administered orally by gavage to groups of three rats using a single oral dose of 5 mg/kg. Each oral dose was prepared as a suspension in 0.5% methylcellulose in water. Blood samples were obtained serially from each rat at 0, 15, 30 min, and then 1, 2, 4, 8, and 24 hrs post dose.
Concentrations of an administered compound and the corresponding metabolite (Compound 1) in rat plasma were determined by a HPLC tandem mass spectrometric (LC/MS/MS) method. 50 μL Plasma PPT by ISTD in MeOH/Acetonitrile (1:1, v/v). 200 μL of 5 ng/mL Terfenadine and Buspirone was added to in MeOH/Acetonitrile (1:1, v/v) and mixed well. […]
Quantification of compounds were achieved by mass spectrometry using Multiple Reaction Monitoring (MRM) mode, monitoring the transitions specific to each exemplary compound and 447.34>405.20 for Compound 1. The quantification limit of the assay was 10 ng/mL for Compound 1.
Non-compartmental pharmacokinetic parameters were determined using a commercial program WinNonLin Professional, Version 8.0 (Pharsight, Mountain View, Calif.). […]
For oral administration, t½ (hr), tmax (hr), Cmax (ng/mL), AUClast (hr*ng/mL), AUCInf (hr*ng/mL), AUC Extr (%), MRTInf (hr), Cmax Ratio (Parent/Pro), AUClast Ratio (Parent/Pro) were determined.

CCCC(=O)OCn1c(-c2cnn(Cc3cccc(C(F)(F)F)c3)c2)nc2c1c(=O)n(CCC)c(=O)n2CC [Compound E, (3-ethyl-2,6-dioxo-1-propyl-8-(1-(3-(trifluoromethyl)benzyl)-1H-pyrazol-4-yl)-1,2,3,6-tetrahydro-7H-purin-7-yl)methyl butyrate]
AUC (AUClast) (compounds of Formula (B), single oral dose of 5 mg/kg): α or β

CCCn1c(=O)c2[nH]c(-c3cnn(Cc4cccc(C(F)(F)F)c4)c3)nc2n(CC)c1=O [Compound 1, 8-(1-(3-(Trifluoromethyl)benzyl)-1H-pyrazol-4-yl)-3-ethyl-1-propyl-1H-purine-2,6(3H,7H)-dione]
AUC(0-t) (rat, Compound 1, single oral dose of 5 mg/kg, read-out: AUC (AUClast)): < 30000 ng·h/mL
